{"source": "patent US6331570A", "about": "“Active enantiomer of RARγ-specific agonist” (Bristol-Myers Squibb Company, priority 1999, dated 2001)", "key": {"[1]": {"settings": "prior art / general statement; cited from earlier work"}, "papillomas": {"tested_on": "papillomas", "test": "two-stage system of mouse skin carcinogenesis (DMBA initiator, TPA promoter)", "type": "in vivo", "settings": "i.p."}, "[2]": {"settings": "13-cis-retinoic acid 50 mg/kg (dose from text), 10 weeks monitoring"}}, "data": [{"smiles": "CC1=C(/C=C/C(C)=C/C=C/C(C)=C\\C(=O)O)C(C)(C)CCC1", "note": "[13-cis-retinoic acid]", "values": [{"measurement": "liver toxicity", "setting": "[1]", "value": "adverse side-effects on long-term use such as liver toxicity"}, {"measurement": "number and size of papillomas", "setting": "papillomas; 50 mg/kg, 10 weeks", "value": "inactive"}, {"measurement": "Tumor Burden (mean tumor size per mouse)", "setting": "papillomas; [2]", "value": 6.8, "unit": "mm^3"}, {"measurement": "Tumor Incidence (% of mice with tumors)", "setting": "papillomas; [2]", "value": 80, "unit": "%"}]}]}
